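Each compound was tested at five concentrations against cells in 96-well plates for 48 hours. At the GI50, growth is halved. The concentration for full growth arrest is given as TGI.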
Columns and labels:
Test in all cases: growth of human tumour cells (NCI), 48 h
[1] = tested on: HCC-2998 colon
[2] = tested on: HCT-15 colon
[3] = tested on: K-562 leukemia
[4] = tested on: KM12 colon
[5] = tested on: MALME-3M melanoma
[6] = tested on: NCI-H522 lung
[7] = tested on: SK-MEL-28 melanoma
[8] = tested on: SNB-75 CNS
[9] = tested on: SW-620 colon
[10] = tested on: M19-MEL melanoma
[11] = tested on: SNB-78 CNS

Compound | TGI [1] [µM] | TGI [2] [µM] | TGI [3] [µM] | TGI [4] [µM] | TGI [5] [µM] | TGI [6] [µM] | TGI [7] [µM] | TGI [8] [µM] | TGI [9] [µM] | GI50 [2] [µM] | GI50 [3] [µM] | GI50 [4] [µM] | GI50 [6] [µM] | GI50 [8] [µM] | GI50 [9] [µM] | TGI [10] [µM] | TGI [11] [µM] | GI50 [1] [µM] | GI50 [5] [µM] | GI50 [7] [µM]
O=C1Nc2ccc(Cl)cc2/C1=C\c1c(Cl)nc2sccn12 | > 100 | > 100 | > 100 | 23.4 | > 100 | > 100 | > 100 | > 100 | > 100 | – | – | – | – | – | – | – | – | – | – | –
COC(=O)N1CC2C3C4CC(C(c5ccccc5)=C4c4ccccc4)C3C21 (stereo not given) | 31.5 | – | > 100 | 34.2 | – | – | 35.4 | 76.4 | 40.4 | – | – | – | – | – | – | – | – | – | – | –
Cc1ccc(N(CC(=O)Nc2ccc(S(=O)(=O)N3CCC(N4CCCC4)CC3)cc2)S(=O)(=O)c2ccc(Cl)cc2)cc1 | – | 2.93 | 2.75 | 3.9 | – | 3.77 | – | 2.73 | 3.44 | 1.43 | 0.566 | 1.96 | 1.89 | 1.22 | 1.66 | – | – | – | – | –
CC(=O)NC1=C[C@@H]([C@H]2COC(C)(C)O2)OC1=O | > 100 | > 100 | > 100 | > 100 | > 100 | > 100 | > 100 | > 100 | > 100 | – | – | – | – | – | – | > 100 | > 100 | – | – | –
O=C(Nc1ccc(-n2ccc3c(NC(=O)c4ccccc4)ncnc32)cc1)Nc1cccc(Cl)c1Cl | 19.9 | 5.42 | 6.04 | 6.57 | 4.13 | 3.11 | 2.45 | 2.71 | 2.36 | 0.156 | 0.985 | 1.15 | 0.972 | 0.777 | 0.998 | – | – | 2.99 | 1.04 | 0.99
CCOC(=O)CC1(c2cccc3ccccc23)OC(=O)c2ccccc21 (stereo not given) | > 100 | > 100 | > 100 | > 100 | 96.2 | 79.8 | > 100 | 75.8 | > 100 | – | – | – | – | – | – | > 100 | > 100 | – | – | –
C=C(OC1C(C)=C2C(C1OC(=O)CCCCCCC)C(C)(OC(C)=O)CC(OC(=O)CCC)C1(O)C2OC(=O)C1(C)O)/C(C)=C/C (stereo not given) | 0.778 | 15 | 5.38 | 3.63 | 0.131 | 1.11 | 3.97 | 1.61 | 2.05 | 0.0842 | < 0.0001 | < 0.0001 | – | < 0.0001 | < 0.0001 | 1.29 | 19.1 | < 0.0001 | 0.000907 | –

— PubChem BioAssay (NCI)
